Laboratory results taken from ChEMBL document CHEMBL1201861, “Genomics of Drug Sensitity in Cancer screening data, Wellcome Trust Sanger Institute”.

How the values were obtained:
Experiment in all cases: cells
NCI-H596 = format: functional, cell-based; settings: Homo sapiens;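 also: growth inhibition of NCI-H596 cells, read out with a cell viability assay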
Description: SANGER: Inhibition of human NCI-H596 cell growth in a cell viability assay.

A673 = format: functional, cell-based; settings: Homo sapiens;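 also: growth inhibition of human A673 cells, read out through a cell viability assay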
Description: SANGER: Inhibition of human A673 cell growth in a cell viability assay.

MOLT-13 = format: functional, cell-based; settings: Homo sapiens;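 also: IC50 for suppression of MOLT-13 cell growth, read out with a cell viability assay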
Description: SANGER: Inhibition of human MOLT-13 cell growth in a cell viability assay.

G-361 = format: functional, cell-based; settings: Homo sapiens
ZR-75-30 = format: functional, cell-based; settings: Homo sapiens;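 also: growth inhibition of ZR-75-30 cells, measured with a cell viability readout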
Description: SANGER: Inhibition of human ZR-75-30 cell growth in a cell viability assay.

IGR-1 = format: functional, cell-based; settings: Homo sapiens;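 also: growth inhibition of human IGR-1 cells, read out with a cell viability assay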
Description: SANGER: Inhibition of human IGR-1 cell growth in a cell viability assay.

D-423MG = format: functional, cell-based; settings: Homo sapiens
Description: SANGER: Inhibition of human D-423MG cell growth in a cell viability assay.

H-EMC-SS = format: functional, cell-based; settings: Homo sapiens
Description: SANGER: Inhibition of human H-EMC-SS cell growth in a cell viability assay.

BHT-101 = format: functional, cell-based; settings: Homo sapiens
Description: SANGER: Inhibition of human BHT-101 cell growth in a cell viability assay.

MHH-ES-1 = format: functional, cell-based; settings: Homo sapiens;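 also: cell growth inhibition measured by a cell viability assay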
Description: SANGER: Inhibition of human MHH-ES-1 cell growth in a cell viability assay.

COLO-792 = format: functional, cell-based; settings: Homo sapiens
Description: SANGER: Inhibition of human COLO-792 cell growth in a cell viability assay.

U-251 = format: functional, cell-based; settings: Homo sapiens;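 also: growth inhibition of human U-251 cells, read out through a cell viability assay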
Description: SANGER: Inhibition of human U251 cell growth in a cell viability assay.

HT-1080 = format: functional, cell-based; settings: Homo sapiens
Description: SANGER: Inhibition of human HT-1080 cell growth in a cell viability assay.

OC-314 = format: functional, cell-based; settings: Homo sapiens
Description: SANGER: Inhibition of human OC-314 cell growth in a cell viability assay.

KNS-62 = format: functional, cell-based; settings: Homo sapiens;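 also: inhibition of cell growth, read out with a cell viability assay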
Description: SANGER: Inhibition of human KNS-62 cell growth in a cell viability assay.

D-566MG = format: functional, cell-based; settings: Homo sapiens
SCC-25 = format: functional, cell-based; settings: Homo sapiens;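 also: growth inhibition of SCC-25 cells, measured with a cell viability assay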
Description: SANGER: Inhibition of human SCC-25 cell growth in a cell viability assay.

BT-549 = format: functional, cell-based; settings: Homo sapiens
Description: SANGER: Inhibition of human BT-549 cell growth in a cell viability assay.

8505C = format: functional, cell-based; settings: Homo sapiens
Description: SANGER: Inhibition of human 8505C cell growth in a cell viability assay.

RVH-421 = format: functional, cell-based; settings: Homo sapiens
Description: SANGER: Inhibition of human RVH-421 cell growth in a cell viability assay.

NCI-H727 = format: functional, cell-based; settings: Homo sapiens;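 also: growth inhibition of human NCI-H727 cells, read out with a cell viability assay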
Description: SANGER: Inhibition of human NCI-H727 cell growth in a cell viability assay.

NCI-H2405 = format: functional, cell-based; settings: Homo sapiens;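 also: growth inhibition of the human cell line, read out with a cell viability assay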
Description: SANGER: Inhibition of human NCI-H2405 cell growth in a cell viability assay.

D-392MG = format: functional, cell-based; settings: Homo sapiens
COLO-679 = format: functional, cell-based; settings: Homo sapiens
Description: SANGER: Inhibition of human COLO-679 cell growth in a cell viability assay.

NCI-H358 = format: functional, cell-based; settings: Homo sapiens;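 also: growth inhibition of NCI-H358 human cells, read out with a cell viability assay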
Description: SANGER: Inhibition of human NCI-H358 cell growth in a cell viability assay.

HuO-3N1 = format: functional, cell-based; settings: Homo sapiens;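 also: cell viability readout used to measure how strongly compounds suppress proliferation of human HuO-3N1 cells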
Description: SANGER: Inhibition of human HuO-3N1 cell growth in a cell viability assay.

KP-N-YN = format: functional, cell-based; settings: Homo sapiens;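 also: growth inhibition of KP-N-YN cells, read out with a cell viability assay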
Description: SANGER: Inhibition of human KP-N-YN cell growth in a cell viability assay.

DoTc2-4510 = format: functional, cell-based; settings: Homo sapiens
OVCAR-8 = format: functional, cell-based; settings: Homo sapiens;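 also: growth inhibition of human OVCAR-8 cells, read out by a cell viability assay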
Description: SANGER: Inhibition of human OVCAR-8 cell growth in a cell viability assay.

HCC1419 = format: functional, cell-based; settings: Homo sapiens;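 also: growth inhibition of human HCC1419 cells, read out as cell viability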
Description: SANGER: Inhibition of human HCC1419 cell growth in a cell viability assay.

SNU-449 = format: functional, cell-based; settings: Homo sapiens
Description: SANGER: Inhibition of human SNU-449 cell growth in a cell viability assay.

TI-73 = format: functional, cell-based; settings: Homo sapiens;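 also: cell viability assay measuring how much compounds suppress growth of the cultured cell line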
Description: SANGER: Inhibition of human TI-73 cell growth in a cell viability assay.

NCI-H2029 = format: functional, cell-based; settings: Homo sapiens;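 also: Read-out is a viability assay on the cultured cells, and IC50 is the concentration that suppresses cell growth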
Description: SANGER: Inhibition of human NCI-H2029 cell growth in a cell viability assay.

EGI-1 = format: functional, cell-based; settings: Homo sapiens;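 also: cell viability readout used to gauge growth inhibition of EGI-1 cells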
Description: SANGER: Inhibition of human EGI-1 cell growth in a cell viability assay.

CFPAC-1 = format: functional, cell-based; settings: Homo sapiens;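 also: cell viability readout used to gauge suppression of CFPAC-1 cell proliferation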
Description: SANGER: Inhibition of human CFPAC-1 cell growth in a cell viability assay.

BPH-1 = format: functional, cell-based; settings: Homo sapiens;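 also: cell viability assay measuring growth inhibition of human BPH-1 cells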
Description: SANGER: Inhibition of human BPH-1 cell growth in a cell viability assay.

RPMI-7951 = format: functional, cell-based; settings: Homo sapiens
Description: SANGER: Inhibition of human RPMI-7951 cell growth in a cell viability assay.

D-336MG = format: functional, cell-based, Homo sapiens; settings: Homo sapiens, D-336MG
Description: SANGER: Inhibition of human D-336MG cell growth in a cell viability assay.

With `NC(=O)Nc1cc(-c2cccc(F)c2)sc1C(=O)N[C@H]1CCCNC1` [AZD-7762] the IC50 (NCI-H596) was > 2000 nM, the IC50 (A673) was 865 nM and the IC50 (MOLT-13) was 463 nM. The IC50 (G-361) was 387 nM, the IC50 (ZR-75-30) was > 2000 nM and the IC50 (IGR-1) was > 2000 nM. It also gave an IC50 (D-423MG) of 331 nM, an IC50 (H-EMC-SS) of 284 nM and an IC50 (BHT-101) of 1150 nM. The IC50 (MHH-ES-1) was > 2000 nM, the IC50 (COLO-792) was > 2000 nM and the IC50 (U-251) was > 2000 nM. It also gave an IC50 (HT-1080) of 493 nM, an IC50 (OC-314) of 78.1 nM and an IC50 (KNS-62) of 566 nM. For the same compound, the IC50 (D-566MG) was 147 nM, the IC50 (SCC-25) was > 2000 nM and the IC50 (BT-549) was 1270 nM. It also gave an IC50 (8505C) of 350 nM, an IC50 (RVH-421) of 1190 nM and an IC50 (NCI-H727) of 698 nM. The IC50 (NCI-H2405) was > 2000 nM, the IC50 (D-392MG) was 456 nM and the IC50 (COLO-679) was 90.9 nM. For the same compound, the IC50 (NCI-H358) was 1430 nM, the IC50 (HuO-3N1) was 941 nM and the IC50 (KP-N-YN) was 349 nM. For the same compound, the IC50 (DoTc2-4510) was 782 nM, the IC50 (OVCAR-8) was 356 nM and the IC50 (HCC1419) was > 2000 nM. For the same compound, the IC50 (SNU-449) was > 2000 nM, the IC50 (TI-73) was 209 nM and the IC50 (NCI-H2029) was > 2000 nM. The IC50 (EGI-1) was 1800 nM, the IC50 (CFPAC-1) was 723 nM and the IC50 (BPH-1) was > 2000 nM. It also gave an IC50 (RPMI-7951) of 231 nM and an IC50 (D-336MG) of 421 nM.
In the case of `Cc1ccc(-n2nc(C(C)(C)C)cc2NC(=O)Nc2ccc(OCCN3CCOCC3)c3ccccc23)cc1` [DORAMAPIMOD], the IC50 (NCI-H596) is reported as > 10000 nM, the IC50 (A673) is reported as > 10000 nM and the IC50 (MOLT-13) is reported as > 10000 nM. The IC50 (G-361) was > 10000 nM, the IC50 (ZR-75-30) was > 10000 nM and the IC50 (IGR-1) was > 10000 nM. For the same compound, the IC50 (D-423MG) was > 10000 nM, the IC50 (H-EMC-SS) was > 10000 nM and the IC50 (BHT-101) was > 10000 nM. The IC50 (MHH-ES-1) was > 10000 nM, the IC50 (COLO-792) was > 10000 nM and the IC50 (U-251) was > 10000 nM. For the same compound, the IC50 (HT-1080) was > 10000 nM, the IC50 (OC-314) was > 10000 nM and the IC50 (KNS-62) was > 10000 nM. For the same compound, the IC50 (D-566MG) was > 10000 nM, the IC50 (SCC-25) was > 10000 nM and the IC50 (BT-549) was > 10000 nM. The IC50 (8505C) was > 10000 nM, the IC50 (RVH-421) was > 10000 nM and the IC50 (NCI-H727) was > 10000 nM. The IC50 (NCI-H2405) was > 10000 nM, the IC50 (D-392MG) was > 10000 nM and the IC50 (COLO-679) was > 10000 nM. For the same compound, the IC50 (NCI-H358) was 7540 nM, the IC50 (HuO-3N1) was > 10000 nM and the IC50 (KP-N-YN) was 8200 nM. The IC50 (DoTc2-4510) was > 10000 nM, the IC50 (OVCAR-8) was > 10000 nM and the IC50 (HCC1419) was > 10000 nM. For the same compound, the IC50 (SNU-449) was > 10000 nM, the IC50 (TI-73) was > 10000 nM and the IC50 (NCI-H2029) was > 10000 nM. The IC50 (EGI-1) was > 10000 nM, the IC50 (CFPAC-1) was > 10000 nM and the IC50 (BPH-1) was > 10000 nM. For the same compound, the IC50 (RPMI-7951) was > 10000 nM and the IC50 (D-336MG) was > 10000 nM.
`CN(NC(=O)CC(=O)NN(C)C(=S)c1ccccc1)C(=S)c1ccccc1` [ELESCLOMOL] was tested, and the IC50 (NCI-H596) was 44.8 nM, the IC50 (A673) was 11.6 nM and the IC50 (MOLT-13) was > 200 nM. The IC50 (G-361) was 27.5 nM, the IC50 (ZR-75-30) was 47.9 nM and the IC50 (IGR-1) was > 200 nM. It also gave an IC50 (D-423MG) of 12 nM, an IC50 (H-EMC-SS) of 3.68 nM and an IC50 (BHT-101) of 3.72 nM. It also gave an IC50 (MHH-ES-1) of 5.69 nM, an IC50 (COLO-792) of 28.8 nM and an IC50 (U-251) of 9.86 nM. For the same compound, the IC50 (HT-1080) was 4.99 nM, the IC50 (OC-314) was 33.5 nM and the IC50 (KNS-62) was 9.62 nM. The IC50 (D-566MG) was 15.2 nM, the IC50 (SCC-25) was 23 nM and the IC50 (BT-549) was 15.8 nM. The IC50 (8505C) was 10.5 nM, the IC50 (RVH-421) was 76.2 nM and the IC50 (NCI-H727) was > 200 nM. It also gave an IC50 (NCI-H2405) of 51 nM, an IC50 (D-392MG) of 78.7 nM and an IC50 (COLO-679) of 14.1 nM. It also gave an IC50 (NCI-H358) of 13.6 nM, an IC50 (HuO-3N1) of 24 nM and an IC50 (KP-N-YN) of 65.6 nM. For the same compound, the IC50 (DoTc2-4510) was > 200 nM, the IC50 (OVCAR-8) was 3.99 nM and the IC50 (HCC1419) was 19.6 nM. For the same compound, the IC50 (SNU-449) was 14.2 nM, the IC50 (TI-73) was 15.2 nM and the IC50 (NCI-H2029) was > 200 nM. The IC50 (EGI-1) was 8.38 nM, the IC50 (CFPAC-1) was > 200 nM and the IC50 (BPH-1) was 83.1 nM. For the same compound, the IC50 (RPMI-7951) was 36.6 nM and the IC50 (D-336MG) was 23.4 nM.
For `NC1(c2ccc(-c3nc4ccn5c(=O)[nH]nc5c4cc3-c3ccccc3)cc2)CCC1` [MK-2206], the IC50 (NCI-H596) was > 4000 nM, the IC50 (A673) was > 4000 nM and the IC50 (MOLT-13) was > 4000 nM. For the same compound, the IC50 (ZR-75-30) was > 4000 nM, the IC50 (IGR-1) was > 4000 nM and the IC50 (D-423MG) was 2410 nM. The IC50 (H-EMC-SS) was 499 nM, the IC50 (BHT-101) was 530 nM and the IC50 (MHH-ES-1) was > 4000 nM. For the same compound, the IC50 (COLO-792) was > 4000 nM, the IC50 (U-251) was > 4000 nM and the IC50 (HT-1080) was > 4000 nM. For the same compound, the IC50 (OC-314) was 2150 nM, the IC50 (KNS-62) was 3630 nM and the IC50 (D-566MG) was > 4000 nM. For the same compound, the IC50 (SCC-25) was > 4000 nM, the IC50 (BT-549) was > 4000 nM and the IC50 (8505C) was > 4000 nM. The IC50 (RVH-421) was 3820 nM, the IC50 (NCI-H727) was > 4000 nM and the IC50 (NCI-H2405) was > 4000 nM. The IC50 (D-392MG) was > 4000 nM, the IC50 (COLO-679) was > 4000 nM and the IC50 (HuO-3N1) was > 4000 nM. For the same compound, the IC50 (KP-N-YN) was > 4000 nM, the IC50 (DoTc2-4510) was > 4000 nM and the IC50 (OVCAR-8) was > 4000 nM. The IC50 (HCC1419) was 489 nM, the IC50 (SNU-449) was > 4000 nM and the IC50 (TI-73) was > 4000 nM. For the same compound, the IC50 (NCI-H2029) was > 4000 nM, the IC50 (EGI-1) was > 4000 nM and the IC50 (CFPAC-1) was > 4000 nM. For the same compound, the IC50 (BPH-1) was > 4000 nM and the IC50 (RPMI-7951) was > 4000 nM.
